# Patent US9487489B2, “Halogen-substituted pyrazole derivatives as pest-control agents” (BAYER CROPSCIENCE AKTIENGESELLSCHAFT, priority 2013, dated 2016)
# Key:
# [1] = tested on: cattle ticks (Boophilus microplus) Parkhurst strain, SP-resistant; assay: Boophilus microplus dip test (BOOPMI Dip); assay type: in vivo; settings: application rate 100 ppm, assessed after 7 days
# Experimental: B. Boophilus microplus-dip Test (BOOPMI Dip)
# Test animals: cattle ticks (Boophilus microplus) Parkhurst strain, SP-resistant
# Solvent: dimethyl sulphoxide
# 10 mg of active compound are dissolved in 0.5 ml of dimethyl sulphoxide. For the purpose of preparing a suitable formulation, the active compound solution is diluted with water to the concentration desired in each case.
# This active compound preparation is pipetted into tubes. 8-10 adult engorged female cattle ticks (Boophilus microplus) are transferred into a further tube with holes. The tube is immersed into the active compound formulation, and all ticks are completely wetted. After the liquid has run out, the ticks are transferred on filter discs into plastic dishes and stored in a climate-controlled room.
# The activity is assessed after 7 days by laying of fertile eggs. Eggs whose fertility is not visible from the outside are stored in a climate-controlled cabinet until the larvae hatch after about 42 days. An efficacy of 100% means that none of the ticks has laid any fertile eggs; 0% means that all eggs are fertile.
# [2] = tested on: engorged adult female cattle ticks (Boophilus microplus); assay: Boophilus microplus injection test (BOOPMI Inj); assay type: in vivo; settings: application rate 20 μg/animal; injection into abdomen; assessed after 7 days
# Procedure, shortened: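 DMSO solution of compound (1 μl) injected into the abdomen of 5 engorged adult female ticks, which are then held in a climate-controlled room. After 7 days, efficacy is scored from laying of fertile eggs, with unclear eggs kept until larval hatch (~42 days); 100% means no fertile eggs, 0% all fertile.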
# [3] = tested on: larvae of the mustard beetle (Phaedon cochleariae); assay: Phaedon cochleariae spray test (PHAECO); assay type: in vivo; settings: application rate 500 g/ha; Chinese cabbage leaf discs; after 7 days
# Procedure, shortened: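 Compound dissolved in acetone/dimethylformamide with alkylaryl polyglycol ether emulsifier, made up in water containing 1000 ppm emulsifier, then diluted to test concentrations and sprayed against mustard beetle larvae. Efficacy (% larvae killed) scored after 7 days.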
# [4] = tested on: adult cat fleas (Ctenocephalides felis); assay: Ctenocephalides felis oral test (CTECFE); assay type: in vivo; settings: application rate 100 ppm in citrated cattle blood; after 2 days
# Procedure, shortened: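 About 20 unfed adult cat fleas fed through parafilm membrane on citrated cattle blood containing compound (DMSO stock diluted in blood to test concentration). Kill % scored after 2 days (100% = all fleas dead).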
# [5] = tested on: caterpillars of the armyworm (Spodoptera frugiperda); assay: Spodoptera frugiperda spray test (SPODFR); assay type: in vivo; settings: application rate 500 g/ha; maize leaf discs; after 7 days
# Procedure, shortened: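 Maize leaf discs sprayed with compound in acetone/DMF with alkylaryl polyglycol ether emulsifier (1000 ppm) in water, dried, then infested with armyworm caterpillars. Mortality (%) scored after 7 days; 100% = all caterpillars killed, 0% = none killed.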
# [6] = tested on: adult cat fleas (Ctenocephalides felis); assay: Ctenocephalides felis in vitro contact test with adult cat fleas (T1); settings: after 48 h
# Procedure, shortened: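 Test compound was dissolved in acetone p.a. (9 mg per 1 ml) and diluted as needed. 250 μl was spread evenly over the inner walls and floor of a 25 ml test tube by rotating on an orbital shaker for 2 h at 30 rpm. Once the solvent evaporated, 5-10 adult Ctenocephalides felis were added. Tubes were capped with a perforated plastic lid and kept horizontal at room temperature and ambient humidity.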
# [7] = tested on: greenhouse red spider mite (Tetranychus urticae); assay: Tetranychus urticae spray test, OP-resistant (TETRUR); assay type: in vivo; settings: application rate 500 g/ha; bean leaf discs; after 6 days
# Procedure, shortened: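 Bean leaf discs carrying all stages of OP-resistant Tetranychus urticae were sprayed with compound formulated in acetone/dimethylformamide and diluted in water with 1000 ppm alkylaryl polyglycol ether emulsifier. Mortality (% efficacy, 100% = all mites killed) scored after 6 days.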
# [8] = tested on: green peach aphid (Myzus persicae); assay: Myzus persicae spray test (MYZUPE); assay type: in vivo; settings: Chinese cabbage leaf discs, after 6 days
# Procedure, shortened: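 Chinese cabbage leaf discs infested with all aphid stages sprayed with compound in acetone/DMF with alkylaryl polyglycol ether emulsifier in water. Efficacy (% aphids killed; 100% all dead, 0% none) scored after 6 days.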
# [9] = tested on: adult houseflies (Musca domestica); assay: Musca domestica test (MUSCDO); assay type: in vivo; settings: application rate 100 ppm; after 2 days
# Procedure, shortened: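 Compound dissolved in DMSO and diluted with water to the test concentration, applied with sugar solution on a sponge; 10 adult houseflies per vessel. Mortality scored after 2 days as % kill (100% all dead, 0% none).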
# [10] = tested on: adult dog ticks (Rhipicephalus sanguineus); assay: Rhipicephalus sanguineus in vitro contact test with adult brown dog ticks (T2); settings: after 48 h
# Procedure, shortened: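 Acetone solutions coated onto test tube walls and floor, giving 5 μg/cm^2 at 900 ppm. Five to ten adult ticks held per tube in the dark at room temperature for 48 h, then heated at 45-50° C for up to 5 min; efficacy is the percentage of dead or moribund ticks unable to climb away.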
# [11] = tested on: L1 larvae of the Australian sheep blowfly (Lucilia cuprina); assay: Lucilia cuprina test (LUCICU); assay type: in vivo; settings: application rate 100 ppm; after 2 days
# Procedure, shortened: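 About 20 L1 larvae placed in a vessel with minced horsemeat plus compound (DMSO concentrate diluted with water to the desired concentration). Kill in % scored after 2 days, 100% meaning all larvae dead.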
SMILES,efficacy (laying of fertile eggs) [1] [%],efficacy (laying of fertile eggs) [2] [%],efficacy in % [3] [%],efficacy (kill in %) [4] [%],efficacy in % [5] [%],efficacy (dead or moribund fleas) ([6]; application rate 1 μg/cm^2) [%],efficacy (dead or moribund fleas) ([6]; application rate 5 μg/cm^2) [%],efficacy in % [7] [%],efficacy in % ([8]; application rate 500 g/ha) [%],efficacy (kill in %) [9] [%],efficacy (dead or moribund ticks) ([10]; application rate 1 μg/cm^2) [%],efficacy (kill in %) [11] [%],efficacy in % ([8]; application rate 100 g/ha) [%],efficacy (dead or moribund ticks) ([10]; application rate 5 μg/cm^2) [%]
COCCNC(=O)c1cc(-c2cnn(-c3c(C(F)(F)F)c(C(F)(F)C(F)(F)F)nn3C)c2)ccc1Cl [Ic-139],100,100,100,100,100,100,100,100,100,,,,,
Cn1nc(C(F)(F)C(F)(F)F)c(C(F)(F)F)c1-n1cc(-c2ccc(Cl)c(C(=O)NCC#N)c2)cn1 [Ic-147],100,100,100,100,100,100,100,100,100,100,80,100,90,
Cn1nc(C(F)(F)C(F)(F)F)c(C(F)(F)F)c1-n1cc(-c2ccc(Cl)c(C(=O)NCC3CC3)c2)cn1 [Ic-153],100,100,100,100,100,100,100,100,90,100,80,100,,80
Cn1ccc(NC(=O)c2cc(-c3cnn(-c4c(C(F)(F)F)c(C(F)(F)C(F)(F)F)nn4C)c3)ccc2Cl)n1 [Ic-159],80,100,100,100,100,100,100,100,100,100,,100,,
Cn1nc(C(F)(F)C(F)(F)F)c(C(F)(F)F)c1-n1cc(-c2ccc(Cl)c(C(=O)N[C@@H]3CCOC3)c2)cn1 [Ic-164],100,100,100,100,100,100,100,100,90,90,100,100,,100
Cn1cc(NC(=O)c2cc(-c3cnn(-c4c(C(F)(F)F)c(C(F)(F)C(F)(F)F)nn4C)c3)ccc2Cl)cn1 [Ic-166],100,100,100,100,100,100,100,100,90,100,100,100,,100
